Molecular target: T1, human LPA1 (Homo sapiens, UniProt Q92633)
T1 construct: expressed in transfected cells; host or cells: Chinese hamster ovary (CHO) cells
Assay: LPA1 functional antagonist assay (calcium flux)
Type: cell-based
Conditions: CHO cells overexpressing human LPA1; calcium flux induced by 10 nM LPA; read-out: hLPA1 IC50
Method: The effectiveness of compounds of the present invention as LPA1 inhibitors can be determined in an LPA1 functional antagonist assay as follows:
The cells were then equilibrated to room temperature for 30 minutes before the assay. […] IC50 values were determined by fitting data to a 4-parameter logistic equation (GraphPad Prism, San Diego Calif.).

T1 sequence (Q92633 whole entry): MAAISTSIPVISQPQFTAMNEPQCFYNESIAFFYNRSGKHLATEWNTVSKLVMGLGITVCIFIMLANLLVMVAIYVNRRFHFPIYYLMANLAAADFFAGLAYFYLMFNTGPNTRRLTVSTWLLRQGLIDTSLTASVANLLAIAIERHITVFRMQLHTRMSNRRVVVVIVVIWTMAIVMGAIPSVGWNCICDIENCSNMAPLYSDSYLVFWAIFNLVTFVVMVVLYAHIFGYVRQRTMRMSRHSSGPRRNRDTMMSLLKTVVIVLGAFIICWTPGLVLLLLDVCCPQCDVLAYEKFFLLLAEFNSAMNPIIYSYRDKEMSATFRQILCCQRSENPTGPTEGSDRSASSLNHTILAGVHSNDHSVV

| Compound | IC50 |
| --- | --- |
| CC(C)CCOC(=O)Nc1c(-c2ccc(O[C@H]3CCC[C@H](C(=O)O)C3)cn2)nnn1C [Example 85, (1S,3S)-3-((6-(5-(((isopentyloxy)carbonyl)amino)-1-methyl-1H-1,2,3-triazol-4-yl)pyridin-3-yl)oxy)cyclohexane-1-carboxylic acid] | 115 nM |
| Cc1nc(-c2nnn(C)c2CNC(=O)NCC2CC(F)(F)C2)ccc1O[C@H]1CCC[C@H](C(=O)O)C1 [Example 123, (1S,3S)-3-((6-(5-((3-((3,3-difluorocyclo-butyl)methyl)ureido)methyl)-1-methyl-1H-1,2,3-triazol-4-yl)-2-methylpyridin-3-yl)oxy)cyclohexane-1-carboxylic acid] | 929 nM |
| CCCC1(COC(=O)NCc2c(-c3ccc(O[C@H]4CCC[C@H](C(=O)O)C4)cn3)nnn2C)CC1 [Example 50, (1S,3S)-3-((6-(1-methyl-5-(((((1-propylcyclopropyl)methoxy)carbonyl)amino)methyl)-1H-1,2,3-triazol-4-yl)pyridin-3-yl)oxy)cyclohexane-1-carboxylic acid] | 28 nM |
| CCCCN(C)C(=O)NCc1c(-c2ccc(O[C@H]3CCC[C@H](C(=O)O)C3)c(CC)n2)nnn1C [Example 150, (1S,3S)-3-((6-(5-((3-butyl-3-methylureido)methyl)-1-methyl-1H-1,2,3-triazol-4-yl)-2-ethyl-pyridin-3-yl)oxy)cyclohexane-1-carboxylic acid] | 44 nM |
| CCCCOC(=O)NCc1c(-c2ccc(O[C@H]3CCC[C@H](C(=O)O)C3)cn2)nnn1C [Example 5, (1S,3S)-3-((6-(5-(((butoxycarbonyl)amino)methyl)-1-methyl-1H-1,2,3-triazol-4-yl)pyridin-3-yl)oxy)cyclohexane-1-carboxylic acid] | 96 nM |
| CCCOC(=O)Nc1c(-c2ccc(O[C@H]3CCC[C@H](C(=O)O)C3)cn2)nnn1C [Example 221, (1S,3S)-3-((6-(1-methyl-5-((pro-poxy-carbonyl)amino)-1H-1,2,3-triazol-4-yl)pyridin-3-yl)oxy)cyclohexane-1-carboxylic acid] | 42 nM |
| Cc1nc(-c2nnn(C)c2NC(=O)OCC2CCCC2)ccc1O[C@H]1CCC[C@H](C(=O)O)C1 [Example 79, (1S,3S)-3-((6-(5-(((cyclopentylmethoxy)carbonyl)amino)-1-methyl-1H-1,2,3-triazol-4-yl)-2-methylpyridin-3-yl)oxy)cyclohexane-1-carboxylic acid] | 32 nM |
| Cc1nc(-c2nnn(C)c2CNC(=O)OCc2ccccc2)ccc1O[C@@H]1CCC[C@@](F)(C(=O)O)C1 (single isomer, unassigned) [Example 211] | 192 nM |
| Cc1nc(-c2nnn(C)c2CCNC(=O)OCc2ccccc2Cl)ccc1O[C@H]1CCC[C@H](C(=O)O)C1 [Example 103, (1S,3S)-3-((6-(5-(2-((((2-chloro-benzyl)oxy)carbonyl)amino)ethyl)-1-methyl-1H-1,2,3-triazol-4-yl)-2-methylpyridin-3-yl)oxy)cyclohexane-1-carboxylic acid] | 595 nM |
| Cc1nc(-c2nnn(C)c2CCNC(=O)Cc2ccccc2)ccc1O[C@H]1CCC[C@H](C(=O)O)C1 [Example 238, (1S,3S)-3-((2-methyl-6-(1-methyl-5-(2-(2-phenylacetamido)ethyl)-1H-1,2,3-triazol-4-yl)pyridin-3-yl)oxy)cyclohexane-1-carboxylic acid] | 138 nM |

More lines, now with the values ahead:

| IC50 | Compound |
| --- | --- |
| 12 nM | Cc1nc(-c2nnn(C)c2CNC(=O)OCc2ccccc2)ccc1O[C@@H]1CCC[C@@](F)(C(=O)O)C1 (racemic) [Example 209, (±)-Cis-3-((6-(5-((((benzyloxy)carbonyl)amino)methyl)-1-methyl-1H-1,2,3-triazol-4-yl)-2-methylpyridin-3-yl)oxy)-1-fluorocyclohexanecarboxylic acid] |
| 664 nM | Cn1nnc(-c2ccc(O[C@@H]3CCC[C@@H](C(=O)O)C3)cc2)c1CNC(=O)OCc1ccccc1 (racemic) [Example 40, (±)-trans-3-(4-(5-((((benzyloxy)carbonyl)amino)methyl)-1-methyl-1H-1,2,3-triazol-4-yl)phenoxy)cyclohexane-1-carboxylic acid] |
| 62 nM | CCc1nc(-c2nnn(C)c2CNC(=O)N(C)CC2CCC2)ccc1O[C@H]1CCC[C@H](C(=O)O)C1 [Example 148, (1S,3S)-3-((6-(5-((3-(cyclobutyl-methyl)-3-methylureido)methyl)-1-methyl-1H-1,2,3-triazol-4-yl)-2-ethylpyridin-3-yl)oxy)cyclohexane-1-carboxylic acid] |
| 519 nM | Cc1nc(-c2nnn(C)c2CNC(=O)N(C)C(C)C)ccc1O[C@H]1CCC[C@H](C(=O)O)C1 [Example 134, (1S,3S)-3-((6-(5-((3-isopropyl-3-methylureido)methyl)-1-methyl-1H-1,2,3-triazol-4-yl)-2-methylpyridin-3-yl)oxy)cyclohexane-1-carboxylic acid] |
| 129 nM | Cc1nc(-c2nnn(C)c2CNC(=O)OC2CC3(CC3)C2)c(F)cc1O[C@H]1CCC[C@H](C(=O)O)C1 [Example 214, (1S,3S)-3-((5-fluoro-2-methyl-6-(1-methyl-5-((((spiro[2.3]hexan-5-yloxy)carbonyl)amino)methyl)-1H-1,2,3-triazol-4-yl)pyridin-3-yl)oxy)cyclohexane-1-carboxylic acid] |
| 22 nM | Cc1nc(-c2nnn(C)c2NC(=O)OCC2CCC2)ccc1O[C@H]1CCC[C@H](C(=O)O)C1 [Example 75] |

Same assay, conditions: human LPA1 functional antagonist assay; read-out: hLPA1 IC50

| Compound | IC50 |
| --- | --- |
| Cc1nc(-c2nnn(C)c2CNC(=O)OCCC(C)C)ccc1O[C@H]1CCC[C@H](C(=O)O)C1 [Example 197, (1S,3S)-3-((6-(5-((((isopentyloxy)carbonyl)amino)methyl)-1-methyl-1H-1,2,3-triazol-4-yl)-2-methyl-pyridin-3-yl)oxy)cyclohexane-1-carboxylic acid] | 16 nM |
| Cc1nc(-c2nnn(C)c2CNC(=O)O[C@H](C)C2CC2)ccc1O[C@H]1CCC[C@H](C(=O)O)C1 [Example 167, (1S,3S)-3-((6-(5-(((((R)-1-cyclo-propylethoxy)carbonyl)amino)methyl)-1-methyl-1H-1,2,3-triazol-4-yl)-2-methylpyridin-3-yl)oxy)cyclohexane-1-carboxylic acid] | 427 nM |
| Cc1nc(-c2nnn(C)c2CNC(=O)OCC2(CCF)CC2)ccc1O[C@H]1CCC[C@H](C(=O)O)C1 [Example 163, (1S,3S)-3-((6-(5-(((((1-(2-fluoro-ethyl)cyclopropyl)methoxy)carbonyl)amino)methyl)-1-methyl-1H-1,2,3-triazol-4-yl)-2-methylpyridin-3-yl)oxy)cyclohexane-1-carboxylic acid] | 88 nM |

Further lines, results first:

| IC50 | Compound |
| --- | --- |
| 96 nM | Cc1nc(-c2nnn(C)c2CNC(=O)OCC(C)C(F)(F)F)ccc1O[C@H]1CCC[C@H](C(=O)O)C1 (mixture of isomers) [Example 204, (1S,3S)-3((2-methyl-6-(1-methyl-5-((((3,3,3-trifluoro-2-methylpropoxy)carbonyl)amino)methyl)-1H-1,2,3-triazol-4-yl)pyridin-3-yl)oxy)cyclohexane-1-carboxylic acid] |
| 213 nM | Cc1nc(-c2nnn(C)c2CNC(=O)OCC2CCC2)cnc1O[C@H]1CCC[C@H](C(=O)O)C1 [Example 156, (1S,3S)-3-((5-(5-((((cyclobutyl-methoxy)carbonyl)amino)methyl)-1-methyl-1H-1,2,3-triazol-4-yl)-3-methylpyrazin-2-yl)oxy)cyclohexane-1-carboxylic acid] |
